pIC50: −log10 of the molar value.

Chain of Human complement C1s enzyme (P09871 438-688 limits assumed): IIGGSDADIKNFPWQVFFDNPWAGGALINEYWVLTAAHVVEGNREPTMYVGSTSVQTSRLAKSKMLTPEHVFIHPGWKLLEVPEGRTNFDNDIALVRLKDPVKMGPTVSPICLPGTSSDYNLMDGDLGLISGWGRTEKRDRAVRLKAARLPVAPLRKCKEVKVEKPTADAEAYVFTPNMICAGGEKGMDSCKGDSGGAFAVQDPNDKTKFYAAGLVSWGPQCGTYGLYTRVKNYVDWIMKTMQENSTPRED
Chain of Human complement C1s enzyme (P09871 16-437 partner limits assumed): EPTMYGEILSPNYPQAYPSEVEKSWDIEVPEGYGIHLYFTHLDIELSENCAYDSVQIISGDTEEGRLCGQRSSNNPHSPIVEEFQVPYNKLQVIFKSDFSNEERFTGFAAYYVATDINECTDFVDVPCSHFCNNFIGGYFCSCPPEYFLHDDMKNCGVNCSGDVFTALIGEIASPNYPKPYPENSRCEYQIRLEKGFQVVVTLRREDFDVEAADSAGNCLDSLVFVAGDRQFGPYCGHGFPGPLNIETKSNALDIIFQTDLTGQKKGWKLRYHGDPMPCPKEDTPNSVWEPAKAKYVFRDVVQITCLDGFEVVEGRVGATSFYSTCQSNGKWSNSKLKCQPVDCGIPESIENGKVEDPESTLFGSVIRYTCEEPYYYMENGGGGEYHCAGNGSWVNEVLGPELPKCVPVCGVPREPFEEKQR

In the assay the target is Human complement C1s enzyme (Homo sapiens (Human), UniProt P09871). Put plainly: Human C1s enzyme assay. Type of assay: biochemical. To be noted: Human complement C1s enzyme 1.16 nM, substrate Z-L-Lys-SBzl 100 μM, assay of Example 3; read-out: IC50 (Stars). An outline of the steps:
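Purified serum-derived human C1s (1.16 nM final) preincubated 5 min at room temperature with compound in 50 mM Tris, 1 M NaCl, pH 7.5. Z-L-Lys-SBzl thioester substrate and DTNB added (100 μM each, final); A405 read every 30 s for 30 min. IC50 from nonlinear regression of reaction rates against compound concentration.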
As for `COC[C@@]1(F)C[C@@H](C(=O)N[C@H](C)c2cc(C(=N)N)cs2)N(C(=O)CNC(=O)c2ccc3cc4ccccc4cc3c2)C1` [Compound 224, (2S,4R)-1-[2-(anthracen-2-ylformamido)acetyl]-N-[(1R)-1-(4-carbamimidoylthiophen-2-yl)ethyl]-4-fluoro-4-(methoxymethyl)pyrrolidine-2-carboxamide], the pIC50 (in general, the negative decadic logarithm of the IC50, by convention in mol/L) was greater than 7.00.

As for `C[C@@H](NC(=O)[C@@H]1CC2(CN1C(=O)CNC(=O)c1ccc3c(c1)-c1cc(F)ccc1C3(F)F)OCCO2)c1cc(C(=N)N)cs1` [Compound 225, (S)—N—((R)-1-(4-carbamimidoylthiophen-2-yl)ethyl)-7-((6,9,9-trifluoro-9H-fluorene-3-carbonyl)glycyl)-1,4-dioxa-7-azaspiro[4.4]nonane-8-carboxamide], the negative-log IC50 (pIC50) is greater than 7.00.

As for `C[C@H]1C[C@@H](C(=O)N[C@H](C)c2cc(C(=N)N)cs2)N(C(=O)CNC(=O)c2ccc3oc4ccccc4c3c2)C1` [Compound 226, (2S,4S)—N—((R)-1-(4-carbamimidoylthiophen-2-yl)ethyl)-1-((dibenzo[b,d]furan-2-carbonyl)glycyl)-4-methylpyrrolidine-2-carboxamide], the pIC50 was greater than 7.00.

On to `N=C(N)c1csc(CNC(=O)[C@@H]2CC3(CN2C(=O)CNC(=O)c2ccc(-c4ccc(F)cc4C(=O)O)cc2)OCCO3)c1` [Compound 227, (S)-4′-((2-(8-(((4-carbamimidoylthiophen-2-yl)methyl)carbamoyl)-1,4-dioxa-7-azaspiro[4.4]nonan-7-yl)-2-oxoethyl)carbamoyl)-4-fluoro-[1,1′-biphenyl]-2-carboxylic acid], for which the pIC50 was greater than 7.00.

`N=C(N)c1csc(CNC(=O)[C@@H]2CC3(CN2C(=O)CN2Cc4cc(-c5ccc(F)cc5F)ccc4C2=O)OCCO3)c1` [Compound 228, (S)—N-((4-carbamimidoylthiophen-2-yl)methyl)-7-(2-(5-(2,4-difluorophenyl)-1-oxoisoindolin-2-yl)acetyl)-1,4-dioxa-7-azaspiro[4.4]nonane-8-carboxamide]: the negative logarithm of the IC50 (pIC50) was greater than 7.00.

As for `N=C(N)c1csc(CNC(=O)[C@@H]2CC3(CN2C(=O)CN2Cc4ccc(-c5ccc(F)cc5F)cc4C2=O)OCCO3)c1` [Compound 229, (S)—N-((4-carbamimidoylthiophen-2-yl)methyl)-7-(2-(6-(2,4-difluorophenyl)-1-oxoisoindolin-2-yl)acetyl)-1,4-dioxa-7-azaspiro[4.4]nonane-8-carboxamide], the negative-log IC50 (pIC50) was greater than 7.00.

For `N=C(N)c1csc(CNC(=O)[C@@H]2CC3(CN2C(=O)CN2Cc4cc(-c5ccc(F)cc5)ccc4C2=O)OCCO3)c1` [Compound 230], the pIC50 was greater than 7.00.

Turning to `N=C(N)c1csc(CNC(=O)[C@@H]2CC3(CN2C(=O)CN2Cc4cc(-c5ccccc5)ccc4C2=O)OCCO3)c1` [Compound 231, (S)—N-((4-carbamimidoylthiophen-2-yl)methyl)-7-(2-(1-oxo-5-phenylisoindolin-2-yl)acetyl)-1,4-dioxa-7-azaspiro[4.4]nonane-8-carboxamide], the pIC50 is greater than 7.00.

For the compound `COC[C@@]1(F)C[C@@H](C(=O)N[C@H](C)c2cc(/C(N)=N\C(=O)OC)cs2)N(C(=O)CNC(=O)c2ccc3c(c2)-c2ccccc2C3(F)F)C1` [Compound 232, methyl ((E)-amino(5-((R)-1-((2S,4R)-1-((9,9-difluoro-9H-fluorene-3-carbonyl)glycyl)-4-fluoro-4-(methoxymethyl)pyrrolidine-2-carboxamido)ethyl)thiophen-3-yl)methylene)carbamate], the pIC50 is greater than 7.00.

With `COC(=O)/N=C(/N)c1csc([C@@H](C)NC(=O)[C@@H]2C[C@](F)(CF)CN2C(=O)CNC(=O)c2ccc(Oc3ccc(F)cc3)cc2)c1` [Compound 233, methyl ((E)-amino(5-((R)-1-((2S,4R)-4-fluoro-4-(fluoromethyl)-1-((4-(4-fluorophenoxy)benzoyl)glycyl)pyrrolidine-2-carboxamido)ethyl)thiophen-3-yl)methylene)carbamate], the pIC50 was greater than 7.00.

For `CCCCCCOC(=O)/N=C(/N)c1csc([C@@H](C)NC(=O)[C@@H]2C[C@](F)(CF)CN2C(=O)CNC(=O)c2ccc(Oc3ccc(F)cc3)cc2)c1` [Compound 234, hexyl ((E)-amino(5-((R)-1-((2S,4R)-4-fluoro-4-(fluoromethyl)-1-((4-(4-fluorophenoxy)benzoyl)glycyl)pyrrolidine-2-carboxamido)ethyl)thiophen-3-yl)methylene)carbamate], the pIC50 was greater than 7.00.

Turning to `C[C@@H](NC(=O)[C@@H]1C[C@](F)(CF)CN1C(=O)CNC(=O)c1ccc2cc3ccccc3cc2c1)c1cc(C(=N)N)cs1` [Compound 235, (2S,4R)-1-((anthracene-2-carbonyl)glycyl)-N—((R)-1-(4-carbamimidoylthiophen-2-yl)ethyl)-4-fluoro-4-(fluoromethyl)pyrrolidine-2-carboxamide], the pIC50 was greater than 7.00.

Take `Cc1ccccc1[C@H]1C[C@@H](C(=O)N[C@H](C)c2cc(C(=N)N)cs2)N(C(=O)CNC(=O)c2ccc3oc4ccccc4c3c2)C1` [Compound 236, (2S,4R)—N—((R)-1-(4-carbamimidoylthiophen-2-yl)ethyl)-1-((dibenzo[b,d]furan-2-carbonyl)glycyl)-4-(o-tolyl)pyrrolidine-2-carboxamide]: the negative-log IC50 (pIC50) is greater than 7.00.

Turning to `Cc1cc2c(cc1C(=O)NCC(=O)N1CC3(C[C@H]1C(=O)N[C@H](C)c1cc(C(=N)N)cs1)OCCO3)-c1ccccc1C2(F)F` [Compound 237, (S)—N—((R)-1-(4-carbamimidoylthiophen-2-yl)ethyl)-7-((9,9-difluoro-2-methyl-9H-fluorene-3-carbonyl)glycyl)-1,4-dioxa-7-azaspiro[4.4]nonane-8-carboxamide], the pIC50 was greater than 7.00.

On to `CCS(=O)(=O)[C@@H]1C[C@@H](C(=O)N[C@H](C)c2cc(C(=N)N)cs2)N(C(=O)CNC(=O)c2ccc3c(c2)-c2ccccc2C3(F)F)C1` [Compound 238, (2S,4R)—N—((R)-1-(4-carbamimidoylthiophen-2-yl)ethyl)-1-((9,9-difluoro-9H-fluorene-3-carbonyl)glycyl)-4-(ethylsulfonyl)pyrrolidine-2-carboxamide], for which the pIC50 is greater than 7.00.

For `C[C@@H](NC(=O)[C@@H]1C[C@@H](S(C)(=O)=O)CN1C(=O)CNC(=O)c1ccc2cc3ccccc3cc2c1)c1cc(C(=N)N)cs1` [Compound 239, (2S,4R)-1-((anthracene-2-carbonyl)glycyl)-N—((R)-1-(4-carbamimidoylthiophen-2-yl)ethyl)-4-(methylsulfonyl)pyrrolidine-2-carboxamide], the pIC50 was greater than 7.00.

As for `Cc1ccc(-c2ccc3c(c2)CN(CC(=O)N2CC4(C[C@H]2C(=O)NCc2cc(C(=N)N)cs2)OCCO4)C3=O)c(C)c1` [Compound 240, (S)—N-((4-carbamimidoylthiophen-2-yl)methyl)-7-(2-(5-(2,4-dimethylphenyl)-1-oxoisoindolin-2-yl)acetyl)-1,4-dioxa-7-azaspiro[4.4]nonane-8-carboxamide], the pIC50 is greater than 7.00.

Take `COc1cccc(F)c1-c1ccc(C(=O)NCC(=O)N2CC3(C[C@H]2C(=O)NCc2cc(C(=N)N)cs2)OCCO3)cc1` [Compound 241, (S)—N-((4-carbamimidoylthiophen-2-yl)methyl)-7-((2′-fluoro-6′-methoxy-[1,1′-biphenyl]-4-carbonyl)glycyl)-1,4-dioxa-7-azaspiro[4.4]nonane-8-carboxamide]: the pIC50 was greater than 7.00.

Regarding `N=C(N)c1csc(CNC(=O)[C@@H]2CC3(CN2C(=O)CNC(=O)c2ccc(-c4ccc(C(=O)O)cc4F)cc2)OCCO3)c1` [Compound 242, (S)-4′-((2-(8-(((4-carbamimidoylthiophen-2-yl)methyl)carbamoyl)-1,4-dioxa-7-azaspiro[4.4]nonan-7-yl)-2-oxoethyl)carbamoyl)-2-fluoro-[1,1′-biphenyl]-4-carboxylic acid], the pIC50 was greater than 7.00.

As to `CO[C@@H]1C[C@@H](C(=O)NCc2cc(NC(=O)CNC(=O)c3ccc(Oc4ccc(F)cc4)cc3)cs2)N(C(=O)CNC(=O)c2ccc(Oc3ccc(F)cc3)cc2)C1` [Compound 243, (2S,4R)-N-((4-(2-(4-(4-fluorophenoxy)benzamido)acetamido)thiophen-2-yl)methyl)-1-((4-(4-fluorophenoxy)benzoyl)glycyl)-4-methoxypyrrolidine-2-carboxamide], the negative logarithm of the IC50 (pIC50) was less than 6.00.

For the compound `Nc1csc(CNC(=O)[C@@H]2CC3(CN2C(=O)CNC(=O)c2ccc(Oc4ccc(F)cc4)cc2)OCCO3)c1` [Compound 244, (S)—N-((4-aminothiophen-2-yl)methyl)-7-((4-(4-fluorophenoxy)benzoyl)glycyl)-1,4-dioxa-7-azaspiro[4.4]nonane-8-carboxamide], the pIC50 is less than 6.00.

On to `N=C(N)c1csc(CNC(=O)[C@@H]2CC3(CN2C(=O)CN2CCc4cc(-c5ccc(F)cc5F)ccc4C2=O)OCCO3)c1` [Compound 245, (S)—N-((4-carbamimidoylthiophen-2-yl)methyl)-7-(2-(6-(2,4-difluorophenyl)-1-oxo-3,4-dihydroisoquinolin-2(1H)-yl)acetyl)-1,4-dioxa-7-azaspiro[4.4]nonane-8-carboxamide], for which the pIC50 was greater than 7.00.

With `COC(=O)/N=C(/N)c1csc([C@@H](C)NC(=O)[C@@H]2C[C@@H](OC(F)F)CN2C(=O)CNC(=O)c2ccc3c(c2)-c2ccccc2C3(F)F)c1` [Compound 247, methyl ((E)-amino(5-((R)-1-((2S,4R)-1-((9,9-difluoro-9H-fluorene-3-carbonyl)glycyl)-4-(difluoromethoxy)pyrrolidine-2-carboxamido)ethyl)thiophen-3-yl)methylene)carbamate], the pIC50 is greater than 7.00.

Regarding `C[C@@H](NC(=O)[C@@H]1C[C@@H](Oc2ccccc2)CN1C(=O)CNC(=O)c1ccc2oc3ccccc3c2c1)c1cc(C(=N)N)cs1` [Compound 248, (2S,4R)—N—((R)-1-(4-carbamimidoylthiophen-2-yl)ethyl)-1-((dibenzo[b,d]furan-2-carbonyl)glycyl)-4-phenoxypyrrolidine-2-carboxamide], the pIC50 is greater than 7.00.
